Reference: PMC5834214 (PLoS Pathogens, 2018)
Where two headings read alike, the source gives them in different places.

Columns and labels:
[1] = system: rLASV/eGFP; assay: microbe, parasite or virus in culture; type: cell-based, Lassa virus; conditions: Mammarenavirus lassaense, A549, 48 h, read-out: IC50 (LASV, eGFP expression)
[2] = system: r3JUNV/eGFP; type: cell-based, Junín virus
[3] = in vitro; conditions: human
[4] = in vitro; conditions: grivet
[5] = system: rLCMV/eGFP; assay: microbe, parasite or virus in culture; conditions: Mammarenavirus choriomeningitidis, A549, 48 h
[6] = system: rLCMV/eGFP; assay: microbe, parasite or virus in culture; conditions: Mammarenavirus choriomeningitidis, Vero C1008, 48 h, read-out: IC50 (anti-LCMV, eGFP expression)
[7] = system: rVSV/eGFP; type: cell-based, vesicular stomatitis Indiana virus
[8] = system: rLCMVΔGPC/eGFP; type: cell-based, lymphocytic choriomeningitis virus
[9] = system: rLCMV/eGFP; type: cell-based, lymphocytic choriomeningitis virus
[10] = system: scrLCMV/ZsG-P2A-NP; type: cell-based, lymphocytic choriomeningitis virus
[11] = system: rLCMV/eGFP; type: cell-based, lymphocytic choriomeningitis virus; remark: listed apart in the source
[12] = system: rLCMV/eGFP; type: cell-based, lymphocytic choriomeningitis virus; remark: listed apart in the source
[13] = system: rLCMV/eGFP; type: cell-based, lymphocytic choriomeningitis virus; remark: listed apart in the source
[14] = system: LCMV Z-mediated budding; type: cell-based, lymphocytic choriomeningitis virus
[15] = system: LASV Z-mediated budding; type: cell-based, Lassa virus
[16] = biological target: LCMV NP (Strep-NP) (Lymphocytic choriomeningitis virus, UniProt P09992)
Chain of LCMV NP (Strep-NP) (P09992 whole entry): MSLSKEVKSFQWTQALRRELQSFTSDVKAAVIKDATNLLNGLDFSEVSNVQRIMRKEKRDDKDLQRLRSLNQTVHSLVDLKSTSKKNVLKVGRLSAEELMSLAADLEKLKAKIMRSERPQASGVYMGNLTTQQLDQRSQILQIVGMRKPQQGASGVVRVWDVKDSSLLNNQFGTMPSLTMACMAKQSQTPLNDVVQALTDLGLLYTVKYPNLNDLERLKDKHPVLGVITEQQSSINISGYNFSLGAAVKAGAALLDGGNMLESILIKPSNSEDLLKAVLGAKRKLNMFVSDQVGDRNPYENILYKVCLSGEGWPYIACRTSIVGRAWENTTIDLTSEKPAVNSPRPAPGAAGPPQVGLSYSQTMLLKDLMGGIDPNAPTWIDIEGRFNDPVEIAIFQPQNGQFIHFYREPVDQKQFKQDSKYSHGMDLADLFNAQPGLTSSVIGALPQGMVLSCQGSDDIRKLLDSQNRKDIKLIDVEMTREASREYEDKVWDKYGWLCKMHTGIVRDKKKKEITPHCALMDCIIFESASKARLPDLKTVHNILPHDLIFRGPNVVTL

[17] = biological target: eGFP (Aequorea victoria, UniProt P42212, F64L/H231L/S65T)
[18] = read-out: IC50 (anti-LCMV, eGFP expression)

Row | Compound | IC50 [1] | JUNV multiplication [2] | CC50 [3] | CC50 [4] | IC50 [5, 18] | IC50 [6] | Multiplication of VSV [7] | reporter eGFP expression (virus RNA synthesis) [8] | cell entry of LCMV [9] | number of eGFP+ cells [9] | eGFP expression in infected cells [12] | production of infectious LCMV progeny [13] | other results
1 | C[C@]12CC[C@H](O)C[C@H]1CC[C@@H]1[C@@H]2CC[C@]2(C)[C@@H](c3ccc(=O)oc3)CC[C@]12O [bufalin] | 1.66 nM | strongly suppressed JUNV multiplication | 16.4 nM | 73.8 nM | 1.85 nM | 12.5 nM | – | – | – | – | – | – | –
2 | C[C@@H]1O[C@@H](O[C@H]2C[C@@H](O)[C@]3(CO)[C@H]4[C@H](O)C[C@]5(C)[C@@H](C6=CC(=O)OC6)CC[C@]5(O)[C@@H]4CC[C@]3(O)C2)[C@H](O)[C@H](O)[C@H]1O [ouabain] | 9.34 nM | strongly suppressed JUNV multiplication | 28.9 nM | 70 nM | 5.79 nM | 18.4 nM | not significantly affected | did not affect reporter eGFP expression | neither ouabain nor rocaglamide inhibited cell entry of LCMV | reduced at all time-of-addition points compared to vehicle | strong dose-dependent inhibition of eGFP expression | reduced | assembly de novo of extracellular infectious virus (GP-incorporation efficiency) [10]: did not inhibit assembly de novo of extracellular infectious virus; assembly de novo of extracellular infectious virus (virus titers in TCS) [11]: did not inhibit assembly de novo of extracellular infectious virus; eGFP expression intensity in infected cells [12]: did not affect eGFP expression intensity; IC50 ([5]; read-out: IC50 as log10 (converted)): 5.79 nM
3 | COc1ccc([C@@]23Oc4cc(OC)cc(OC)c4[C@]2(O)[C@H](O)[C@H](C(=O)N(C)C)[C@H]3c2ccccc2)cc1 [rocaglamide] | 37 nM | strongly suppressed JUNV multiplication | > 1000 nM | 100 nM | 9.51 nM | 9.75 nM | not significantly affected | reduced eGFP expression | neither ouabain nor rocaglamide inhibited cell entry of LCMV | negligible number of eGFP^+ cells | dose-dependent rocaglamide inhibition of eGFP expression | reduced | LCMV Z budding efficiency [14]: caused a reduction; LASV Z budding efficiency [15]: caused a reduction
4 | SPTAN1 | – | – | – | – | – | – | – | – | – | – | – | – | Spectral count NP Average [16]: 4; Spectral count NP Exp. 1 [16]: 4; Spectral count NP Exp. 2 [16]: 4; Spectral count eGFP Average [17]: 0; Spectral count eGFP Exp. 1 [17]: 0; Spectral count eGFP Exp. 2 [17]: 0
